Test results taken from US20260206761A1, “HETEROARYL-TRIAZOLE COMPOUNDS AS PESTICIDES” (Bayer Aktiengesellschaft, priority 2019, published 2026).

Legend:
Format in all cases: in vivo
[1] = test system: Musca domestica strain WHO-N; assay: Musca domestica test (MUSCDO surface treatment & contact assay); conditions: 24 hours after contact, read-out: efficacy (mortality); for mortality at 20 mg/m2: surface concentration 20 mg/m^2, exposure 30 minutes; for mortality at 4 mg/m2: surface concentration 4 mg/m^2, exposure 30 minutes
Procedure: Musca domestica Test (MUSCDO Surface Treatment & Contact Assay)
(§1) Solvent: Aceton+2000 ppm rapeseed oil methyl ester (RME)
(§2) In order to produce a sufficient, active ingredient containing solution it is necessary to solve the test compound in the solvent-mix (acetone at 2 mg/ml/RME 2000 ppm). This solution is pipetted onto a glazed tile and after evaporation of the acetone, adult flies of the species Musca domestica strain WHO—N are placed onto the dried surface. The exposure time is 30 minutes. Mortality in percent (%) is determined 24 hours after contact of the insects to the treated surface. 100% mortality means that all tested insects are dead, whereas 0% means that no insect died.

[2] = test system: green peach aphid (Myzus persicae); assay: Myzus persicae oral test; conditions: 120 h, application rate 4 ppm, after 5 days
In short: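 Aphids of mixed population ingest the compound preparation by sucking through a parafilm sheet stretched over wells holding test solution plus IPL41 insect medium (33%+15% sugar). Kill rate in percent is determined five days later.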

[3] = test system: adult unfed cat fleas (Ctenocephalides felis); assay: Ctenocephalides felis oral test; conditions: 48 h, read-out: activity (mortality)
In short: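 About 20 adult unfed fleas fed through parafilm on cattle blood containing compound (DMSO stock diluted in blood), blood held at 37 °C and fleas at room temperature. Mortality (%) scored after 2 days.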

[4] = test system: adult engorged female ticks (Rhipicephalus microplus); assay: Rhipicephalus (Boophilus) microplus injection test; conditions: 168 h, egg deposition after 7 days, read-out: activity (efficacy: infertile eggs); for pest or weed control at 4 pg: application rate 4 pg/animal; for pest or weed control at 0.02 mg: application rate 20 μg/animal
In short: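 Compound in DMSO (10 mg per 0.5 mL, then diluted with DMSO to test concentration); 1 μL injected into the abdomen of each of five engorged females, then held in a climate chamber. Fertile egg deposition checked at 7 days; efficacy 100% = all eggs infertile, 0% = all fertile.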

[5] = test system: fall armyworm larvae (Spodoptera frugiperda); assay: Spodoptera frugiperda spray test; conditions: 168 h, read-out: activity (mortality)
In short: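 Larvae of fall armyworm placed on dried maize leaf sections previously sprayed with emulsified compound (acetone/DMF solvent, water with 1000 ppm emulsifier). Percent of caterpillars killed recorded on day 7, 0–100% scale.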

[6] = test system: larvae of the banded cucumber beetle (Diabrotica balteata); assay: Diabrotica balteata spray test; conditions: 168 h, after 7 days, read-out: activity (efficacy: seedlings grown); for pest or weed control at 100 g/ha: application rate 100 g/ha (=32 pg/well); for pest or weed control at 500 g/ha: application rate 500 g/ha (=160 pg/well)
In short: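 Read-out is % efficacy at day 7, 0% meaning no seedling growth and 100% growth equal to uninfested untreated controls. Test solutions (acetone/DMF concentrate diluted with water carrying 1000 ppm emulsifier) were sprayed onto 1-day-germinated wheat seeds, 5 per well, before infestation with 10-20 larvae.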

[7] = test system: Rhipicephalus microplus larvae (strain Parkhurst, resistant against synthetic pyrethroids); assay: Rhipicephalus (Boophilus) microplus in-vitro contact test, larval cattle tick; conditions: after 48 hours, read-out: activity (efficacy: larvae dead or moribund); for pest or weed control at 100 g/ha: application rate 1 pg/cm^2 (=100 g/ha); for pest or weed control at 500 g/ha: application rate 5 pg/cm^2 (=500 g/ha)
In short: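 Larvae (20-50 per tube) exposed to dry compound film on glass tube walls, 5 μg/cm^2 at 900 ppm, applied from acetone. After 48 h at 27° C./85% RH, tubes tapped and negative geotaxis scored; efficacy as percent dead or moribund larvae.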

[8] = test system: adult brown dog ticks (Rhipicephalus sanguineus); assay: Rhipicephalus sanguineus in-vitro contact test, adult brown dog ticks; conditions: after 48 hours, read-out: activity (efficacy: ticks dead or moribund); for pest or weed control at 5 µg/cm2, 500 g/ha: application rate 5 μg/cm^2 (=500 g/ha); for pest or weed control at 100 g/ha: application rate 1 pg/cm^2 (=100 g/ha)
In short: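 Efficacy is % of adult ticks dead or moribund 48 h after confinement at room temperature in tubes wall-coated from acetone (5 μg/cm² at 900 ppm). Scoring by heat challenge at 45-50 °C up to 5 min; immotile or uncoordinated ticks failing to climb count as affected.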

[9] = test system: Aedes aegypti strain MONHEIM; assay: Aedes aegypti test (AEDSAE surface treatment & contact assay); conditions: 24 hours after contact, read-out: efficacy (mortality); for mortality at 4 mg/m2: surface concentration 4 mg/m^2, exposure 30 minutes; for mortality at 20 mg/m2: surface concentration 20 mg/m^2, exposure 30 minutes
In short: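 Percent mortality was read 24 h after adult MONHEIM mosquitoes were held for 30 min on a tile treated with compound. Compound applied from acetone solution (2 mg/ml) containing 2000 ppm rapeseed oil methyl ester, after evaporation.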

[10] = test system: green peach aphid (Myzus persicae); assay: Myzus persicae spray test; conditions: 120 h, after 5 days; for mortality at 100 g/ha: application rate 100 g/ha; for mortality at 500 g/ha: application rate 500 g/ha
Procedure: Myzus persicae—Spray Test
Solvent: 78.0 parts by weight acetone • 1.5 parts by weight dimethylformamide
Emulsifier: alkylarylpolyglycol ether
To produce a suitable preparation of active compound, 1 part by weight of active compound is mixed with the stated amount of solvents and is diluted with water, containing an emulsifier concentration of 1000 ppm, to the desired concentration. Further test concentrations are prepared by dilution with emulsifier containing water.
Chinese cabbage (Brassica pekinensis) leaf disks infected with all instars of the green peach aphid (Myzus persicae), are sprayed with a preparation of the active ingredient of the desired concentration.
After 5 days mortality in % is determined. 100% means all aphids have been killed and 0% means none of the aphids have been killed.

[11] = test system: larvae of the southern green stink bug (Nezara viridula); assay: Nezara viridula spray test; conditions: 96 h, after 4 days; for mortality at 100 g/ha: application rate 100 g/ha; for mortality at 500 g/ha: application rate 500 g/ha
In short: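 Larva-infested barley (Hordeum vulgare) plants received a spray of test solution prepared from an acetone/DMF concentrate diluted in emulsifier-containing water (1000 ppm). Percent kill read 4 days later; 0% means no stink bugs dead.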

[12] = test system: adult cat fleas (Ctenocephalides felis); assay: Ctenocephalides felis in-vitro contact test, adult cat flea; conditions: application rate 5 μg/cm^2 (=500 g/ha), after 48 hours, read-out: activity (efficacy: fleas dead or moribund)
Procedure: Ctenocephalides felis—In-Vitro Contact Tests Adult Cat Flea
9 mg compound is solved in 1 mL acetone and diluted with acetone to the desired concentration. 250 μL of the test solution is filled in 25 mL glass test tubes and homogeneously distributed on the inner walls by rotation and tilting on a shaking device (2 h at 30 rpm). With a compound concentration of 900 ppm, an inner surface of 44.7 cm^2 and a homogeneous distribution, a dose of […] is achieved.
After the solvent has evaporated, each test tube is filled with 5-10 adult cat fleas (Ctenocephalides felis), closed with a perforated lid and incubated in a lying position at room temperature and relative humidity. After 48 hours efficacy is determined. The fleas are patted on the ground of the tubes and are incubated on a heating plate at 45-50° C. for at most 5 minutes. Immotile or uncoordinated moving fleas, which are not able to escape the heat by climbing upwards, are marked as dead or moribund.
An efficacy of 100% means all fleas are dead or moribund; 0% means no fleas are dead or moribund.

[13] = test system: Culex quinquefasciatus strain P00; assay: Culex quinquefasciatus test (CULXFA surface treatment & contact assay); conditions: 24 hours after contact, read-out: efficacy (mortality)
Procedure: Culex quinquefasciatus Test (CULXFA Surface Treatment & Contact Assay)
as §1
as §2, with “2 000” for “2000”, “mosquitoes” for “flies”, “Culex quinquefasciatus” for “Musca domestica”, “P00” for “WHO—N”

Row | Compound | mortality at 20 mg/m2 [1] [%] | mortality at 4 ppm [2] [%] | mortality at 100 ppm [3] [%] | pest or weed control at 4 pg [4] [%] | pest or weed control at 0.02 mg [4] [%] | mortality at 100 g/ha [5] [%] | mortality at 4 mg/m2 [1] [%] | pest or weed control at 100 g/ha [6] [%] | pest or weed control at 100 g/ha [7] [%] | pest or weed control at 500 g/ha [7] [%] | pest or weed control at 5 µg/cm2, 500 g/ha [8] [%] | mortality at 4 mg/m2 [9] [%] | mortality at 20 mg/m2 [9] [%] | pest or weed control at 100 g/ha [8] [%] | mortality at 100 g/ha [10] [%] | mortality at 100 g/ha [11] [%] | mortality at 500 g/ha [11] [%] | mortality at 500 g/ha [5] [%] | pest or weed control at 5 µg/cm2 [12] [%] | pest or weed control at 500 g/ha [6] [%] | also measured
1 | C[C@H](NC(=O)c1cc(Cl)cc(S(=O)(=O)CC(F)(F)F)c1)c1nc(C2CC2)nn1-c1ccc(C#N)cn1 [I-13] | 80 to 100 | 90 | 90 | 100 | 100 |  |  |  |  |  |  |  |  |  |  |  |  |  |  |  | 
2 | CCS(=O)(=O)c1cc(C(=O)N[C@@H](C)c2nc(C3CC3)nn2-c2ccc(C#N)cn2)cc(C(F)(F)F)c1 [I-19] | 80 to 100 | 100 | 90 | 100 | 100 | 100 | 80 to 100 | 80 | 100 | 100 | 80 |  |  |  |  |  |  |  |  |  | 
3 | C[C@H](NC(=O)c1cc(Cl)cc(C2(C#N)CC2)c1)c1nc(C2CC2)nn1-c1ccc(C#N)cn1 [I-36] | 80 to 100 |  | 100 | 100 |  | 100 | 80 to 100 | 100 | 100 | 100 | 80 | 80 to 100 | 80 to 100 | 100 |  |  |  |  |  |  | 
4 | COc1nc([C@H](C)NC(=O)c2cc(OC(F)(F)F)cc(S(C)(=O)=O)c2)n(-c2ccc(Cl)cn2)n1 [I-80] | 80 to 100 | 100 |  |  |  | 100 | 80 to 100 | 100 |  |  |  |  |  |  | 90 | 100 | 100 |  |  |  | 
5 | Cc1nc([C@H](C)NC(=O)c2cc(C)n(C)n2)n(-c2ccc(C#N)cn2)n1 [II-6] |  |  | 100 | 100 | 100 |  |  |  |  |  | 100 | 80 to 100 | 80 to 100 | 80 | 90 |  |  | 100 | 100 | 100 | mortality at 500 g/ha [10]: 90%; mortality at 4 mg/m2 ([13]; surface concentration 4 mg/m^2, exposure 30 minutes): 80 to 100%; mortality at 20 mg/m2 ([13]; surface concentration 20 mg/m^2, exposure 30 minutes): 80 to 100%
6 | C[C@H](NC(=O)c1cc(C#N)cc(S(C)(=O)=O)c1)c1ncnn1-c1ccc(C#N)cn1 [II-9] |  | 100 | 100 | 100 | 100 |  |  | 100 | 80 | 80 |  | 80 to 100 |  |  | 90 | 100 | 100 | 100 | 90 | 100 | mortality at 500 g/ha [10]: 90%
7 | Cc1nc([C@H](C)NC(=O)c2cc(Cl)cc(S(=O)(=O)C(F)(F)F)c2)n(-c2ccc(Cl)cn2)n1 [II-14] | 80 to 100 |  |  | 80 | 100 | 100 |  | 100 |  | 80 |  |  |  |  |  |  | 100 | 100 | 90 | 100 | 
8 | C[C@H](NC(=O)c1cc(Br)cc(S(C)(=O)=O)c1)c1ncnn1-c1ccc(C#N)cn1 [II-41] |  | 100 | 100 | 100 | 100 | 100 |  | 100 | 100 | 100 | 100 |  |  | 100 | 100 | 100 |  |  | 100 |  | 
9 | C[C@H](NC(=O)c1cc(Cl)cc(C2(C#N)CC2)c1)c1ncnn1-c1ncc(Cl)cn1 [II-55] |  | 100 | 100 | 100 |  | 100 |  | 100 | 100 | 100 | 100 |  |  | 100 | 100 | 100 |  |  | 100 |  | 
10 | C[C@H](NC(=O)c1cc(C2CC2)cc(C2CC2)c1)c1ncnn1-c1ccc(C#N)cn1 [II-57] |  | 100 | 100 | 100 |  | 100 | 80 to 100 | 100 | 100 | 100 | 100 | 80 to 100 | 80 to 100 | 80 |  |  |  |  |  |  | 
